Series [1] relates to IL-8 (Interleukin-8) production. In words: glucocorticoid inhibition of IL-1 induced IL-8 production in human chondrosarcoma cells. Format: cell-based. The settings on record: SW1353 human chondrosarcoma cells, 20 ng/ml IL-1 beta, 24 hours after addition of IL-1, ELISA; read-out: IC50, inhibitor of IL-8 expression. The protocol: (§1) This assay, the glucocorticoid inhibition of IL-1 (Interleukin-1) induced MMP-1 (Matrix Metalloproteinase-1) and IL-8 (Interleukin-8) production in human chondrosarcoma cells, is conducted as follows: SW1353 human chondrosarcoma cells (obtained from ATCC) from passage 12 through passage 19 are used in a 96 well format assay. Cells are plated at confluence into 96 well plates in DMEM (Dulbecco's Modified Eagle Medium) with 10% fetal bovine serum and incubated at 37° C., 5% CO2. After 24 hours, serum containing media is removed and replaced with 200 ul/well DMEM containing 1 mg/L insulin, 2 g/L lactalbumin hydrosylate, and 0.5 mg/L ascorbic acid and returned to incubation at 37° C., 5% CO2. […] IL-8 production is assessed using the Quantikine human IL-8 ELISA kit from R&D Systems (D8050) on samples diluted 60-fold in RD5P Calibrator Diluent, following the manufacturer's protocol. The percent of the average IL-1 control is determined for the average of each of the triplicate samples following subtraction of the average signal from untreated cells. IC50's are determined from log linear plots of the percent of control versus the concentration of inhibitor. […] MMP-1 production is assessed via the Bio-Trak MMP-1 ELISA kit from Amersham (RPN2610) on 100 ul of neat sample following the manufacturer's protocol. […]
A general note: ELISA stands for enzyme-linked immunosorbent assay.

Series [2] relates to MMP-1 (Matrix Metalloproteinase-1) production. In words: glucocorticoid inhibition of IL-1 induced MMP-1 production in human chondrosarcoma cells. The class given is cell-based. The settings on record: SW1353 human chondrosarcoma cells, 20 ng/ml IL-1 beta, 72 hours after IL-1 addition, ELISA; read-out: IC50, inhibitor of MMP1 expression. On the procedure: as §1

In general, melting point refers to the temperature, or range, at which the solid turns liquid. Molecule `CC[C@@]12C[C@H](N)[C@](O)(c3ccccc3)C[C@H]1CCc1cc(O)ccc12` [Example 41, (2R,3S,4aR,10aR)-3-Amino-4a-ethyl-2-phenyl-1,2,3,4,4a,9,10,10a-octahydro-phenanthrene-2,7-diol] registered a melting point of 209 to 210 °C.

For `CC[C@@]12C[C@](O)(C(C)C)[C@](O)(c3ccccc3)C[C@H]1CCc1cc(O)ccc12` [Example 49], the melting point was in the range of 236 to 237 °C.

As for `CC[C@@]12C[C@@](C)(O)[C@](O)(c3ccccc3)C[C@H]1CCc1cc(OCC(=O)O)ccc12` [Example 70, (4bR,6R,7R,8aR)-(4b-Ethyl-6,7-dihydroxy-6-methyl-7-phenyl-4b,5,6,7,8,8a,9,10-octahydro-phenanthren-2-yloxy)-acetic acid], the melting point fell in the range of 190 to 191 °C.

In the case of `CC[C@@]12C[C@@](C)(O)[C@](O)(c3ccccc3)C[C@H]1CCc1cc(OCc3nnn[nH]3)ccc12` [Example 76, (2R,3R,4aR,10aR)-4a-Ethyl-3-methyl-2-phenyl-7-(1H-tetrazol-5-ylmethoxy)-1,2,3,4,4a,9,10,10a-octahydro-phenanthrene-2,3-diol], the melting point was 108 to 110 °C.

In turn, `CC[C@@]12C[C@H](O)[C@](O)(c3c(F)cccc3F)C[C@H]1CCc1cc(O)ccc12` [Example 35, (2R,3S,4aR,10aR)-2-(2,6-difluorophenyl)-4a-ethyl-1,2,3,4,4a,9,10,10a-octahydrophenanthrene-2,3,7-triol] registered a melting point of 198 to 200 °C.

Broadly, the IC50 is the midpoint of a concentration-inhibition curve. Consider `C[C@@H]1C[C@H]2[C@@H]3CCC4=CC(=O)C=C[C@]4(C)[C@@]3(F)[C@@H](O)C[C@]2(C)[C@@]1(O)C(=O)CO` [Dexamethasone, (11β,16α)-9-fluoro-11,17,21-trihydroxy-16-methylpregna-1,4-diene-3,20-dione], for which the half-inhibitory concentration (IC50) in series [1] and in series [2] was 5 nM throughout.

Consider `CC[C@@]12C[C@H](O)[C@](O)(c3c(F)cccc3F)C[C@H]1CCc1cc(OCc3cccnc3C)ccc12` (hydrate or solvate) [Example 56, (2R,3S,4aR,10aR)-2-(2,6-Difluoro-phenyl)-4a-ethyl-7-(2-methyl-pyridin-3-ylmethoxy)-1,2,3,4,4a,9,10,10a-octahydro-phenanthrene-2,3-diol], for which the melting point is 80 to 83 °C.

`CC[C@@]12C[C@@](C)(O)[C@](O)(c3ccccc3)C[C@H]1CCc1cc(OCC(C)(C)O)ccc12` [Example 73, (2R,3R,4aR,10aR)-4a-Ethyl-7-(2-hydroxy-2-methyl-propoxy)-3-methyl-2-phenyl-1,2,3,4,4a,9,10,10a-octahydro-phenanthrene-2,3-diol]: the melting point is 190 to 193 °C.

Source of the values: patent publication US7138406B2, “Modulators of the glucocorticoid receptor” (Pfizer, Inc., priority 2002, dated 2006).
